Source: patent publication US11840528B2 (Hoffmann-La Roche Inc., priority 2018, dated 2023)

Tests used:
[1] = target: T1, h-GABA-A α5β3γ2 (Homo sapiens, UniProt P18507+P31644); experiment: [3H]flumazenil competition binding assay, membranes of HEK293 cells expressing GABAA receptors
Method in brief: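 Membranes from HEK293 cells transiently expressing human α5β3γ2 GABAA receptors, in Krebs-tris buffer pH 7.5, competed against [3H]flumazenil for 1 hour at 4° C to equilibrium. Bound radioactivity collected on GF/C filters and counted by liquid scintillation; Ki values are means of two determinations.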

[2] = target: T1, h-GABA-A α5β3γ2; experiment: Two-electrode voltage clamp electrophysiology in Xenopus laevis oocytes expressing GABAA receptors, modulation of GABA EC20 current; type: cell-based; design: host or cells: Xenopus laevis oocytes micro-injected with RNA transcripts of the subunits
Method in brief: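 Human α5β3γ2 GABAA receptors were expressed in Xenopus oocytes by RNA injection, with γ2 RNA 5–10-fold higher, and recorded 3–5 days later by two-electrode voltage clamp at −80 mV at room temperature. The test compound, at about 30× its Ki, was co-applied during a second GABA EC20 pulse. Efficacy is the extremum of the point-by-point ratio to the first response, expressed as 100*(Fold increase−1).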

[3] = displacement of [3H]-Flumazenil 0.5 nM, HEK293 cells expressing human receptors, mean of two determinations, Table 1
[4] = % modulation of GABA EC20 = 100*(Fold increase-1), Table 1
[5] = test compound at approx. 30 fold its Ki, GABA at EC20, Table 1
[6] = reference compounds, % modulation of GABA EC20, Table 2

SMILES | Ki [1, 3] | Efficacy (GABA) % [2, 4] | Fold increase h-GABA-A α5β3γ2 oocyte [2, 5] | Ki ([1]; reference compounds, Table 2) | Efficacy (GABA) % [2, 6] | Fold increase h-GABA-A α5β3γ2 oocyte ([2]; reference compounds, Table 2)
Cc1ccc(-c2noc(C)c2Cn2ncc(N3CC(OC4CCC4)C3)cc2=O)nn1 [Example 238, 5-[3-(cyclobutoxy)azetidin-1-yl]-2-[[5-methyl-3-(6-methylpyridazin-3-yl)isoxazol-4-yl]methyl]pyridazin-3-one] | 6.8 nM | 128% | 2.28 |  |  | 
Cc1ccc(-c2noc(C)c2Cn2ncc(N3CC4(C[C@H](O)CO4)C3)cc2=O)cn1 [Example 131, 5-[(7S)-7-hydroxy-5-oxa-2-azaspiro[3.4]octan-2-yl]-2-[[5-methyl-3-(6-methyl-3-pyridyl)isoxazol-4-yl]methyl]pyridazin-3-one] | 17 nM | 105% | 2.05 |  |  | 
Cc1ccc(-c2noc(C)c2Cn2ncc(N3CC(C)(O)C3)cc2=O)cn1 [Example 98, 5-(3-hydroxy-3-methyl-azetidin-1-yl)-2-[[5-methyl-3-(6-methyl-3-pyridyl)isoxazol-4-yl]methyl]pyridazin-3-one] | 7.3 nM | 132% | 2.32 |  |  | 
Cc1cc(C)n(-c2ccc(OCc3c(-c4ccccc4)noc3C)nn2)n1 [RO-039, reference compound] |  |  |  | 5.15 nM | −17% | 0.83
Cc1onc(-c2ccc(Cl)cn2)c1Cn1ncc(N2CC3(C2)CN(C2CC2)C3)cc1=O [Example 86, 2-[[3-(5-chloro-2-pyridyl)-5-methyl-isoxazol-4-yl]methyl]-5-(2-cyclopropyl-2,6-diazaspiro[3.3]heptan-6-yl)pyridazin-3-one] | 11.9 nM | 87% | 1.87 |  |  | 
Cc1ccc(-c2noc(C)c2Cn2ncc(N3C4CCC3COC4)cc2=O)cn1 [Example 35, 2-[[5-methyl-3-(6-methyl-3-pyridyl)isoxazol-4-yl]methyl]-5-(3-oxa-8-azabicyclo[3.2.1]octan-8-yl)pyridazin-3-one] | 0.8 nM | 179% | 2.79 |  |  | 
Cc1onc(-c2ccccc2)c1COc1ccc(N2CCCC2)nn1 [RO-035, reference compound] |  |  |  | 10.5 nM | −35% | 0.65
Cc1ccc(-c2noc(C)c2Cn2ncc(-c3ccc(F)cc3)cc2=O)cn1 [Example 68, 5-(4-fluorophenyl)-2-[[5-methyl-3-(6-methylpyridin-3-yl)-1,2-oxazol-4-yl]methyl]pyridazin-3-one] | 11.9 nM | 71% | 1.71 |  |  | 
Cc1ccc(-c2noc(C)c2Cn2ncc(N3CC(Oc4ccc(F)cc4)C3)cc2=O)cn1 [Example 123, 5-[3-(4-fluorophenoxy)azetidin-1-yl]-2-[[5-methyl-3-(6-methyl-3-pyridyl)isoxazol-4-yl]methyl]pyridazin-3-one] | 18.6 nM | 152% | 2.52 |  |  | 
Cc1ccc(-c2noc(C)c2Cn2ncc(N3CC(OC(C)(C)C)C3)cc2=O)nn1 [Example 234, 5-(3-(tert-butoxy)azetidin-1-yl)-2-((5-methyl-3-(6-methylpyridazin-3-yl)isoxazol-4-yl)methyl)pyridazin-3(2H)-one] | 4.4 nM | 93% | 1.93 |  |  | 
Cc1ccc(-c2noc(C)c2Cn2ncc(N3CCO[C@@H](C)C3)cc2=O)cn1 [Example 89, 2-[[5-methyl-3-(6-methyl-3-pyridyl)isoxazol-4-yl]methyl]-5-[(2S)-2-methylmorpholin-4-yl]pyridazin-3-one] | 1.4 nM | 189% | 2.89 |  |  | 
Cc1onc(-c2ncc(Cl)cc2F)c1Cn1ncc(N2C[C@@H](C)O[C@@H](C)C2)cc1=O [Example 52, 2-[[3-(5-chloro-3-fluoro-2-pyridyl)-5-methyl-isoxazol-4-yl]methyl]-5-(cis-2,6-dimethylmorpholin-4-yl)pyridazin-3-one] | 0.7 nM | 135% | 2.35 |  |  | 
Cc1ccc(-c2noc(CF)c2Cn2ncc(N3C[C@@H](C)O[C@@H](C)C3)cc2=O)cn1 [Example 243, 5-((2S,6R)-2,6-dimethylmorpholin-4-yl)-2-((5-(fluoromethyl)-3-(6-methylpyridin-3-yl)-1,2-oxazol-4-yl)methyl)pyridazin-3-one] | 4.6 nM | 173% | 2.73 |  |  | 
CCOc1ncc(-c2cnn(Cc3c(-c4ccc(C)nc4)noc3C)c(=O)c2)cc1C [Example 180, 5-(6-ethoxy-5-methylpyridin-3-yl)-2-((5-methyl-3-(6-methylpyridin-3-yl)isoxazol-4-yl)methyl)pyridazin-3(2H)-one] | 39 nM | 196% | 2.96 |  |  | 
Cc1ccc(-c2noc(C)c2Cn2ncc(N3CC4(CC(F)CCO4)C3)cc2=O)nn1 (single isomer, unassigned) [Example 287] | 3.8 nM | 77% | 1.77 |  |  | 
COc1ccc(-c2cnn(Cc3c(-c4ccc(C)nc4)noc3C)c(=O)c2)cn1 [Example 81, 5-(6-methoxypyridin-3-yl)-2-((5-methyl-3-(6-methylpyridin-3-yl)isoxazol-4-yl)methyl)pyridazin-3(2H)-one] | 24.2 nM | 123% | 2.23 |  |  | 

Second part, led by results:

Ki [1, 3] | Efficacy (GABA) % [2, 4] | Fold increase h-GABA-A α5β3γ2 oocyte [2, 5] | SMILES | Ki ([1]; reference compounds, Table 2) | Efficacy (GABA) % [2, 6] | Fold increase h-GABA-A α5β3γ2 oocyte ([2]; reference compounds, Table 2)
48.8 nM | 159% | 2.59 | Cc1onc(-c2ccc(Cl)nc2)c1Cn1ncc(N2CCC3(CC2)CC(F)CCO3)cc1=O (single isomer, unassigned) [Example 330] |  |  | 
22.7 nM | 86% | 1.86 | Cc1ccc(-c2noc(C)c2Cn2ncc(-c3cnn(CC4CC4)c3)cc2=O)cn1 [Example 157, 5-(1-(cyclopropylmethyl)-1H-pyrazol-4-yl)-2-((5-methyl-3-(6-methylpyridin-3-yl)isoxazol-4-yl)methyl)pyridazin-3(2H)-one] |  |  | 
36.6 nM | 108% | 2.08 | Cc1onc(-c2ccc(Cl)nc2)c1Cn1ncc(N2CC3(CCOCC3)C2)cc1=O [Example 257, 2-((3-(6-chloropyridin-3-yl)-5-methylisoxazol-4-yl)methyl)-5-(7-oxa-2-azaspiro[3.5]nonan-2-yl)pyridazin-3(2H)-one] |  |  | 
3.3 nM | 112% | 2.12 | CO[C@H]1CN(c2cnn(Cc3c(-c4ccc(Cl)nc4)noc3C)c(=O)c2)[C@H]1C [Example 286, 2-((3-(6-chloropyridin-3-yl)-5-methylisoxazol-4-yl)methyl)-5-((2S,3S)-3-methoxy-2-methylazetidin-1-yl)pyridazin-3(2H)-one] |  |  | 
7.8 nM | 91% | 1.91 | COc1ccc(-c2cnn(Cc3c(-c4ccc(C)nc4)noc3C)c(=O)c2)cc1OC [Example 113, 5-(3,4-dimethoxyphenyl)-2-((5-methyl-3-(6-methyl-3-pyridyl)isoxazol-4-yl)methyl)pyridazin-3-one] |  |  | 
32.8 nM | 245% | 3.45 | Cc1ccc(-c2noc(C)c2Cn2ncc(N3CC4(CN(C)C4)C3)cc2=O)cn1 [Example 82, 5-(6-methyl-2,6-diazaspiro[3.3]heptan-2-yl)-2-[[5-methyl-3-(6-methyl-3-pyridyl)isoxazol-4-yl]methyl]pyridazin-3-one] |  |  | 
4.5 nM | 198% | 2.98 | Cc1ccc(-c2noc(C)c2Cn2ncc(N3CC(Oc4ccncc4)C3)cc2=O)cn1 [Example 129, 2-[[5-methyl-3-(6-methyl-3-pyridyl)isoxazol-4-yl]methyl]-5-[3-(4-pyridyloxy)azetidin-1-yl]pyridazin-3-one] |  |  | 
0.4 nM | 132% | 2.32 | Cc1ccc(-c2noc(C)c2Cn2ncc(N3CCNC4(CC4)C3)cc2=O)cn1 [Example 74, 5-(4,7-diazaspiro[2.5]octan-7-yl)-2-[[5-methyl-3-(6-methyl-3-pyridyl)isoxazol-4-yl]methyl]pyridazin-3-one] |  |  | 
18.7 nM | 106% | 2.06 | Cc1onc(-c2ccc(Cl)nc2)c1Cn1ncc(N2CC(OCC(F)F)C2)cc1=O [Example 245, 2-((3-(6-chloropyridin-3-yl)-5-methylisoxazol-4-yl)methyl)-5-(3-(2,2-difluoroethoxy)azetidin-1-yl)pyridazin-3(2H)-one] |  |  | 
0.5 nM | 216% | 3.16 | Cc1ccc(-c2noc(C)c2Cn2ncc(N3C[C@@H](C)O[C@H](C)C3)cc2=O)cn1 (single isomer, unassigned) [Example 30, 5-[(2R,6R)-2,6-dimethylmorpholin-4-yl]-2-[[5-methyl-3-(6-methyl-3-pyridyl)isoxazol-4-yl]methyl]pyridazin-3-one or enantiomer] |  |  | 
